Active and inactive are the calls of the source. No cut-off for these calls is given here.
What was measured:
[1] = system: TK-10; assay: Antitumor activity against human TK10 cells after 48 hrs; format: functional; settings: TK-10, 48 h
[2] = system: CAKI-1; assay: Antitumor activity against human Caki1 cells after 48 hrs; format: functional; settings: CAKI-1, 48 h
[3] = system: SK-MEL-28; assay: Antitumor activity against human SK-MEL-28 cells after 48 hrs; format: functional; settings: SK-MEL-28, 48 h
[4] = system: SF-268; assay: Antitumor activity against human SF268 cells after 48 hrs; format: functional; settings: SF-268, 48 h
[5] = system: HL-60(TB); assay: Antitumor activity against human HL-60(TB) cells after 48 hrs; format: functional; settings: HL-60, 48 h
[6] = system: SK-MEL-5; assay: Antitumor activity against human SK-MEL-5 cells after 48 hrs; format: functional; settings: SK-MEL-5, 48 h
[7] = system: IGROV-1; assay: Antitumor activity against human IGROV1 cells after 48 hrs; format: functional; settings: IGROV-1, 48 h
[8] = system: SK-MEL-2; assay: Antitumor activity against human SK-MEL-2 cells after 48 hrs; format: functional; settings: SK-MEL-2, 48 h
[9] = system: OVCAR-5; assay: Antitumor activity against human OVCAR5 cells after 48 hrs; format: functional; settings: OVCAR-5, 48 h
[10] = system: A498; assay: Antitumor activity against human A498 cells after 48 hrs; format: functional; settings: A498, 48 h
[11] = Antitumor activity against human RPMI8226 cells after 48 hrs; format: functional; settings: RPMI-8226, 48 h
[12] = system: SR; assay: Antitumor activity against human SR cells after 48 hrs; format: functional
[13] = system: 786-0; assay: Antitumor activity against human 786-0 cells after 48 hrs; format: functional; settings: 786-0, 48 h
[14] = system: HCT-15; assay: Antitumor activity against human HCT15 cells after 48 hrs; format: functional; settings: HCT-15, 48 h
[15] = Antitumor activity against human COLO205 cells after 48 hrs; format: functional; settings: COLO 205, 48 h
[16] = Antitumor activity against human Hs578T cells after 48 hrs; format: functional; settings: Hs-578T
[17] = system: KM12; assay: Antitumor activity against human KM12 cells after 48 hrs; format: functional; settings: KM12, 48 h
[18] = system: Malme-3M; assay: Antitumor activity against human MALME-3M cells after 48 hrs; format: functional
[19] = Antitumor activity against human RXF393 cells after 48 hrs; format: functional; settings: RXF 393, 48 h
[20] = system: UACC-62; assay: Antitumor activity against human UACC62 cells after 48 hrs; format: functional; settings: UACC-62, 48 h
[21] = system: OVCAR-8; assay: Antitumor activity against human OVCAR8 cells after 48 hrs; format: functional; settings: OVCAR-8, 48 h
[22] = system: MCF7; assay: Antitumor activity against human MCF7 cells after 48 hrs; format: functional; settings: MCF7, 48 h
[23] = system: HCT-116; assay: Antitumor activity against human HCT116 cells after 48 hrs; format: functional; settings: HCT-116, 48 h
[24] = Antitumor activity against human LOXIMVI cells after 48 hrs; format: functional; settings: LOX IMVI
[25] = system: NCI-H522; assay: Antitumor activity against human NCI-H522 cells after 48 hrs; format: functional; settings: NCI-H522, 48 h
[26] = system: MDA-MB-231; assay: Antitumor activity against human MDA-MB-231 cells after 48 hrs; format: functional; settings: MDA-MB-231, 48 h
[27] = system: MDA-MB-468; assay: Antitumor activity against human MDA-MB-468 cells after 48 hrs; format: functional; settings: MDA-MB-468, 48 h
[28] = system: OVCAR-3; assay: Antitumor activity against human OVCAR3 cells after 48 hrs; format: functional; settings: OVCAR-3, 48 h
[29] = system: CCRF-CEM; assay: Antitumor activity against human CCRF-CEM cells after 48 hrs; format: functional
[30] = Antitumor activity against human MOLT4 cells after 48 hrs; format: functional; settings: MOLT-4, 48 h
[31] = system: NCI-H226; assay: Antitumor activity against human NCI-H226 cells after 48 hrs; format: functional; settings: NCI-H226, 48 h
[32] = system: A549; assay: Antitumor activity against human A549 cells after 48 hrs; format: functional; settings: A549, 48 h
[33] = system: UO-31; assay: Antitumor activity against human UO31 cells after 48 hrs; format: functional; settings: UO-31, 48 h
[34] = Antitumor activity against human HCC2998 cells after 48 hrs; format: functional; settings: HCC 2998, 48 h
[35] = system: K562; assay: Antitumor activity against human K562 cells after 48 hrs; format: functional; settings: K562, 48 h
[36] = system: DU-145; assay: Antitumor activity against human DU145 cells after 48 hrs; format: functional; settings: DU-145, 48 h
[37] = system: HT-29; assay: Antitumor activity against human HT-29 cells after 48 hrs; format: functional; settings: HT-29, 48 h
[38] = system: ACHN; assay: Antitumor activity against human ACHN cells after 48 hrs; format: functional
[39] = system: MDA-MB-435; assay: Antitumor activity against human MDA-MB-435 cells after 48 hrs; format: functional; settings: MDA-MB-435, 48 h
[40] = system: NCI-H23; assay: Antitumor activity against human NCI-H23 cells after 48 hrs; format: functional; settings: NCI-H23, 48 h
[41] = system: NCI-H460; assay: Antitumor activity against human NCI-H460 cells after 48 hrs; format: functional; settings: NCI-H460, 48 h
[42] = Antitumor activity against human HOP92 cells after 48 hrs; format: functional; settings: HOP-92, 48 h
[43] = system: SN12C; assay: Antitumor activity against human SN12C cells after 48 hrs; format: functional
[44] = Antitumor activity against human BT549 cells after 48 hrs; format: functional; settings: BT-549, 48 h
[45] = system: SNB-75; assay: Antitumor activity against human SNB75 cells after 48 hrs; format: functional; settings: SNB-75, 48 h
[46] = system: NCI-H322M; assay: Antitumor activity against human NCI-H322M cells after 48 hrs; format: functional
[47] = system: M14; assay: Antitumor activity against human M14 cells after 48 hrs; format: functional; settings: M14, 48 h
[48] = system: OVCAR-4; assay: Antitumor activity against human OVCAR4 cells after 48 hrs; format: functional; settings: OVCAR-4, 48 h
[49] = system: SNB-19; assay: Antitumor activity against human SNB19 cells after 48 hrs; format: functional; settings: SNB-19, 48 h
[50] = Antitumor activity against human NCI-ADR-RES cells after 48 hrs; format: functional
[51] = system: U-251; assay: Antitumor activity against human U251 cells after 48 hrs; format: functional; settings: U-251, 48 h
[52] = system: SW-620; assay: Antitumor activity against human SW620 cells after 48 hrs; format: functional
[53] = system: SK-OV-3; assay: Antitumor activity against human SKOV3 cells after 48 hrs; format: functional; settings: SK-OV-3, 48 h
[54] = system: EKVX; assay: Antitumor activity against human EKVX cells after 48 hrs; format: functional, cell-based
[55] = system: T47D; assay: Antitumor activity against human T47D cells after 48 hrs; format: functional
[56] = Antitumor activity against human SF539 cells after 48 hrs; format: functional; settings: SF-539, 48 h
[57] = system: HOP-62; assay: Antitumor activity against human HOP62 cells after 48 hrs; format: functional; settings: HOP-62, 48 h
[58] = system: PC-3; assay: Antitumor activity against human PC3 cells after 48 hrs; format: functional; settings: PC-3, 48 h
[59] = Antitumor activity against human SF295 cells after 48 hrs; format: functional; settings: SF-295, 48 h
[60] = system: UACC-257; assay: Antitumor activity against human UACC257 cells after 48 hrs; format: functional; settings: UACC-257, 48 h

For `COc1cc(/C(C#N)=C/c2cnc3ccccc3c2)cc(OC)c1OC`, the GI50 [1] was 2550 nM, the GI50 [2] was 346 nM and the GI50 [3] was 3270 nM. For the same molecule, the GI50 [4] was 9170 nM, the GI50 [5] was 329 nM and the GI50 [6] was 410 nM. The GI50 [7] was 3150 nM, the GI50 [8] was 1050 nM and the GI50 [9] was 3940 nM. For the same molecule, the GI50 [10] was 678 nM, the GI50 [11] was 2060 nM and the GI50 [12] was 569 nM. The GI50 [13] was 6290 nM, the GI50 [14] was 1080 nM and the GI50 [15] was 374 nM. It also gave a GI50 [16] of 1310 nM, a GI50 [17] of 436 nM and a GI50 [18] of 691 nM. It also gave a GI50 [19] of 579 nM, a GI50 [20] of 478 nM and a GI50 [21] of 3410 nM. For the same molecule, the GI50 [22] was 429 nM, the GI50 [23] was 464 nM and the GI50 [24] was 645 nM. It also gave a GI50 [25] of 299 nM, a GI50 [26] of 2830 nM and a GI50 [27] of 870 nM. It also gave a GI50 [28] of 263 nM, a GI50 [29] of 1380 nM and a GI50 [30] of 3200 nM. For the same molecule, the GI50 [31] was over 100000 nM, the GI50 [32] was 680 nM and the GI50 [33] was 580 nM. For the same molecule, the GI50 [34] was 2010 nM, the GI50 [35] was 444 nM and the GI50 [36] was 1510 nM. For the same molecule, the GI50 [37] was 421 nM, the GI50 [38] was 911 nM and the GI50 [39] was 227 nM. It also gave a GI50 [40] of 2930 nM, a GI50 [41] of 2050 nM and a GI50 [42] of 403 nM. The GI50 [43] was 1940 nM, the GI50 [44] was 1430 nM and the GI50 [45] was 1490 nM. It also gave a GI50 [46] of 27400 nM, a GI50 [47] of 540 nM and a GI50 [48] of 13800 nM. The GI50 [49] was 5230 nM, the GI50 [50] was 343 nM and the GI50 [51] was 1700 nM. For the same molecule, the GI50 [52] was “inactive”, the GI50 [53] was 1340 nM and the GI50 [54] was “inactive”. The GI50 [55] was 9540 nM, the GI50 [56] was 361 nM and the GI50 [57] was 10300 nM. The GI50 [58] was 1080 nM and the GI50 [59] was 556 nM.
Molecule `COc1cc(OC)cc(/C(C#N)=C/c2cnc3ccccc3c2)c1` has a GI50 [1] of 17700 nM, a GI50 [2] of 223 nM and a GI50 [3] of 1400 nM. For the same molecule, the GI50 [4] was 654 nM, the GI50 [5] was 234 nM and the GI50 [6] was 249 nM. The GI50 [7] was 3500 nM, the GI50 [8] was 709 nM and the GI50 [9] was 587 nM. The GI50 [10] was 333 nM, the GI50 [11] was 332 nM and the GI50 [12] was “inactive”. It also gave a GI50 [13] of 484 nM, a GI50 [14] of 455 nM and a GI50 [60] of 12800 nM. It also gave a GI50 [15] of 398 nM, a GI50 [16] of 715 nM and a GI50 [17] of 409 nM. The GI50 [18] was 635 nM, the GI50 [19] was 297 nM and the GI50 [20] was 357 nM. It also gave a GI50 [21] of 584 nM, a GI50 [22] of 333 nM and a GI50 [23] of 420 nM. It also gave a GI50 [24] of 672 nM, a GI50 [25] of 69 nM and a GI50 [26] of 1150 nM. The GI50 [27] was 217 nM, the GI50 [28] was 279 nM and the GI50 [29] was 332 nM. The GI50 [30] was 378 nM, the GI50 [31] was 62200 nM and the GI50 [32] was 556 nM. It also gave a GI50 [34] of 1450 nM, a GI50 [35] of 243 nM and a GI50 [36] of 505 nM. It also gave a GI50 [37] of 362 nM, a GI50 [38] of 1190 nM and a GI50 [39] of 53 nM. For the same molecule, the GI50 [40] was 747 nM, the GI50 [41] was 362 nM and the GI50 [42] was 3090 nM. The GI50 [43] was 661 nM, the GI50 [44] was 388 nM and the GI50 [45] was 224 nM. It also gave a GI50 [46] of 903 nM, a GI50 [47] of 310 nM and a GI50 [48] of 1730 nM. It also gave a GI50 [49] of 614 nM, a GI50 [50] of 224 nM and a GI50 [51] of 374 nM. The GI50 ([52]; SW-620, 48 h) was 352 nM, the GI50 [53] was 576 nM and the GI50 [54] was “inactive”. The GI50 [55] was 628 nM, the GI50 [56] was 289 nM and the GI50 [57] was 793 nM. For the same molecule, the GI50 [58] was 506 nM and the GI50 [59] was 243 nM.
